Test results: BindingDB's records for doi:10.1110/ps.0229303 (Gsk, 2003)

How the values were obtained:
Test in all cases: PDF Inhibition Assay
Conditions in all cases: pH 7.6; 25 °C
Peptide deformylase [1] = molecular target: T1, Peptide deformylase (Haemophilus influenzae (strain ATCC 51907 / DSM 11121 / KW20 / Rd), UniProt P44786)
T1 sequence (P44786 whole entry): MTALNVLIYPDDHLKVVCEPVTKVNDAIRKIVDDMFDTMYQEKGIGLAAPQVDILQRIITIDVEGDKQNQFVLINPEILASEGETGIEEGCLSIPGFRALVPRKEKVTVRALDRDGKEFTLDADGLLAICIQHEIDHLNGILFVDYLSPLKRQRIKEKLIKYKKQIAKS
Procedure: (§1) Enzyme assay was carried out in 96-well microtiter plates with a SpectraMax plate reader (Molecular Devices Corp.). PDF activity was measured using a continuous enzyme-linked assay. The reaction was triggered with the addition of PDF enzyme, and absorbance was monitored for 15 min at 340 nm. […] A standard curve with NADH concentrations ranging from 0 to 1 mM was performed. The velocities obtained in mOD340 nm per minute were then converted to micromolar NADH produced per second to calculate Vmax. To determine IC50s, PDF activity was measured in the presence of increasing concentrations of the inhibitor in the presence of substrate concentration corresponding to Km values. All data fitting was carried out with nonlinear least squares regression using the commercial software package Graphit.

Peptide deformylase [2] = molecular target: T2, Peptide deformylase (Escherichia coli (strain K12), UniProt P0A6K3)
T2 sequence (P0A6K3 whole entry): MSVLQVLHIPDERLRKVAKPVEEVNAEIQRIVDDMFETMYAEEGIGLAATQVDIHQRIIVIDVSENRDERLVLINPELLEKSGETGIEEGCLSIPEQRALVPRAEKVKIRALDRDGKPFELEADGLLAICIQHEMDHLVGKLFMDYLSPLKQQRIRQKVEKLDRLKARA
Procedure: as §1

Peptide deformylase [3] = molecular target: T3, Peptide deformylase (Streptococcus pneumoniae (strain ATCC BAA-255 / R6), UniProt Q8DP79)
T3 sequence (Q8DP79 whole entry): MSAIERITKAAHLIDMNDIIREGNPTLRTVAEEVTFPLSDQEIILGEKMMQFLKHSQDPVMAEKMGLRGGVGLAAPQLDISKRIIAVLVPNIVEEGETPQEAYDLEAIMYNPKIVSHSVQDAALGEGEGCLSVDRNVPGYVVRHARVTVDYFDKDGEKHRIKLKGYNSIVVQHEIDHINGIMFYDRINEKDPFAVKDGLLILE
Procedure: as §1

Peptide deformylase [4] = molecular target: T4, Peptide deformylase (Staphylococcus aureus (strain Mu50 / ATCC 700699), UniProt P68825)
T4 sequence (P68825 whole entry): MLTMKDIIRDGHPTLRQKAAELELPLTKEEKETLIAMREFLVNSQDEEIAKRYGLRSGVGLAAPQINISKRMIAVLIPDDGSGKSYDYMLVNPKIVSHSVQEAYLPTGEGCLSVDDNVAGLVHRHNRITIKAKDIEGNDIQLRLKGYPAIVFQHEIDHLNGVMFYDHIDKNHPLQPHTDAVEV
Procedure: as §1

IC50 (Peptide deformylase [1]) [µM]	SMILES	IC50 (Peptide deformylase [2]) [µM]	IC50 (Peptide deformylase [3]) [µM]	IC50 (Peptide deformylase [4]) [µM]
1.04	Cc1cccc(CCCN(O)C=O)n1 [N-hydroxy-N-[3-(6-methylpyridin-2-yl)propyl]formamide]			
0.32	O=CN(O)CCOc1cccc(C(=O)c2ccccc2)c1 [N-[2-(3-benzoylphenoxy)ethyl]-N-hydroxyformamide]			

SMILES	IC50 (Peptide deformylase [1]) [µM]	IC50 (Peptide deformylase [2]) [µM]	IC50 (Peptide deformylase [3]) [µM]	IC50 (Peptide deformylase [4]) [µM]
O=CN(O)CCCc1ccccc1 [N-hydroxy-N-(3-phenylpropyl)formamide]	0.15	0.16	0.4	0.25
